The NIST ThermoML archive (doi:10.1016/j.jct.2017.03.006)
Numbers after ± are expanded uncertainties.

Assay: xn = mol fraction of the nth substance listed
Conditions: Liquid; for mass density: 313.15 K, Vibrating tube method; for viscosity: 323.15 K, 100 kPa, Concentric cylinders viscometry

Work on `Cc1ccc(C)c(C)c1` [1,2,4-trimethylbenzene] + CCC(C)O yielded a mass density (50000 kPa, x2 = 0.5997) of 855 ± 0.8 kg/m3, a mass density (50000 kPa, x2 = 0.6999) of 848.2 ± 0.8 kg/m3 and a mass density (50000 kPa, x2 = 0.7999) of 841.1 ± 0.8 kg/m3. The mass density (50000 kPa, x2 = 0.9) was 833.3 ± 0.8 kg/m3, the mass density (60000 kPa, x2 = 0) was 895 ± 0.8 kg/m3 and the mass density (60000 kPa, x2 = 0.1) was 890.1 ± 0.8 kg/m3. The mass density (60000 kPa, x2 = 0.1989) was 884.6 ± 0.8 kg/m3, the mass density (60000 kPa, x2 = 0.3011) was 878.8 ± 0.8 kg/m3 and the mass density (60000 kPa, x2 = 0.4002) was 873.1 ± 0.8 kg/m3. For the same compound, the mass density (60000 kPa, x2 = 0.5001) was 867.1 ± 0.8 kg/m3, the mass density (60000 kPa, x2 = 0.5997) was 860.6 ± 0.8 kg/m3 and the mass density (60000 kPa, x2 = 0.6999) was 853.8 ± 0.8 kg/m3. For the same compound, the mass density (60000 kPa, x2 = 0.7999) was 846.7 ± 0.8 kg/m3, the mass density (60000 kPa, x2 = 0.9) was 839 ± 0.8 kg/m3 and the mass density (70000 kPa, x2 = 0) was 899.9 ± 0.8 kg/m3. The mass density (70000 kPa, x2 = 0.1) was 895.3 ± 0.8 kg/m3, the mass density (70000 kPa, x2 = 0.1989) was 889.7 ± 0.8 kg/m3 and the mass density (70000 kPa, x2 = 0.3011) was 884.1 ± 0.8 kg/m3. The mass density (70000 kPa, x2 = 0.4002) was 878.3 ± 0.8 kg/m3, the mass density (70000 kPa, x2 = 0.5001) was 872.4 ± 0.8 kg/m3 and the mass density (70000 kPa, x2 = 0.5997) was 865.9 ± 0.8 kg/m3. For the same compound, the mass density (70000 kPa, x2 = 0.6999) was 859.1 ± 0.8 kg/m3, the mass density (70000 kPa, x2 = 0.7999) was 852.1 ± 0.8 kg/m3 and the mass density (70000 kPa, x2 = 0.9) was 844.4 ± 0.9 kg/m3. It also gave a mass density (80000 kPa, x2 = 0) of 904.6 ± 0.8 kg/m3, a mass density (80000 kPa, x2 = 0.1) of 900.1 ± 0.8 kg/m3 and a mass density (80000 kPa, x2 = 0.1989) of 894.7 ± 0.8 kg/m3. The mass density (80000 kPa, x2 = 0.3011) was 889 ± 0.8 kg/m3, the mass density (80000 kPa, x2 = 0.4002) was 883.3 ± 0.8 kg/m3 and the mass density (80000 kPa, x2 = 0.5001) was 877.5 ± 0.8 kg/m3. The mass density (80000 kPa, x2 = 0.5997) was 871 ± 0.8 kg/m3, the mass density (80000 kPa, x2 = 0.6999) was 864.2 ± 0.8 kg/m3 and the mass density (80000 kPa, x2 = 0.7999) was 857.2 ± 0.9 kg/m3. The mass density (80000 kPa, x2 = 0.9) was 849.5 ± 0.9 kg/m3, the mass density (90000 kPa, x2 = 0) was 909 ± 0.8 kg/m3 and the mass density (90000 kPa, x2 = 0.1) was 904.7 ± 0.8 kg/m3. It also gave a mass density (90000 kPa, x2 = 0.1989) of 899.4 ± 0.8 kg/m3, a mass density (90000 kPa, x2 = 0.3011) of 893.6 ± 0.8 kg/m3 and a mass density (90000 kPa, x2 = 0.4002) of 888.1 ± 0.8 kg/m3. The mass density (90000 kPa, x2 = 0.5001) was 882.2 ± 0.8 kg/m3, the mass density (90000 kPa, x2 = 0.5997) was 875.7 ± 0.9 kg/m3 and the mass density (90000 kPa, x2 = 0.6999) was 869 ± 0.9 kg/m3. The mass density (90000 kPa, x2 = 0.7999) was 861.9 ± 0.9 kg/m3, the mass density (90000 kPa, x2 = 0.9) was 854.3 ± 0.9 kg/m3 and the mass density (100000 kPa, x2 = 0) was 913.3 ± 0.8 kg/m3. For the same compound, the mass density (100000 kPa, x2 = 0.1) was 909.2 ± 0.8 kg/m3, the mass density (100000 kPa, x2 = 0.1989) was 903.8 ± 0.8 kg/m3 and the mass density (100000 kPa, x2 = 0.3011) was 898.1 ± 0.8 kg/m3. It also gave a mass density (100000 kPa, x2 = 0.4002) of 892.5 ± 0.8 kg/m3, a mass density (100000 kPa, x2 = 0.5001) of 886.8 ± 0.9 kg/m3 and a mass density (100000 kPa, x2 = 0.5997) of 880.3 ± 0.9 kg/m3. It also gave a mass density (100000 kPa, x2 = 0.6999) of 873.6 ± 0.9 kg/m3, a mass density (100000 kPa, x2 = 0.7999) of 866.6 ± 0.9 kg/m3 and a mass density (100000 kPa, x2 = 0.9) of 859 ± 0.9 kg/m3. The mass density (110000 kPa, x2 = 0) was 917.4 ± 0.8 kg/m3, the mass density (110000 kPa, x2 = 0.1) was 913.5 ± 0.8 kg/m3 and the mass density (110000 kPa, x2 = 0.1989) was 908.1 ± 0.8 kg/m3. The mass density (110000 kPa, x2 = 0.3011) was 902.5 ± 0.8 kg/m3, the mass density (110000 kPa, x2 = 0.4002) was 897 ± 0.9 kg/m3 and the mass density (110000 kPa, x2 = 0.5001) was 891.3 ± 0.9 kg/m3. The mass density (110000 kPa, x2 = 0.5997) was 884.8 ± 0.9 kg/m3, the mass density (110000 kPa, x2 = 0.6999) was 878.1 ± 0.9 kg/m3 and the mass density (110000 kPa, x2 = 0.7999) was 871.1 ± 0.9 kg/m3. The mass density (110000 kPa, x2 = 0.9) was 863.5 ± 0.9 kg/m3, the mass density (120000 kPa, x2 = 0) was 921.4 ± 0.8 kg/m3 and the mass density (120000 kPa, x2 = 0.1) was 917.6 ± 0.8 kg/m3. For the same compound, the mass density (120000 kPa, x2 = 0.1989) was 912.3 ± 0.8 kg/m3, the mass density (120000 kPa, x2 = 0.3011) was 906.7 ± 0.8 kg/m3 and the mass density (120000 kPa, x2 = 0.4002) was 901.1 ± 0.9 kg/m3. The mass density (120000 kPa, x2 = 0.5001) was 895.5 ± 0.9 kg/m3, the mass density (120000 kPa, x2 = 0.5997) was 889.1 ± 0.9 kg/m3 and the mass density (120000 kPa, x2 = 0.6999) was 882.4 ± 0.9 kg/m3. The mass density (120000 kPa, x2 = 0.7999) was 875.3 ± 0.9 kg/m3, the mass density (120000 kPa, x2 = 0.9) was 867.7 ± 1 kg/m3 and the mass density (130000 kPa, x2 = 0) was 925.2 ± 0.8 kg/m3. For the same compound, the mass density (130000 kPa, x2 = 0.1) was 921.5 ± 0.8 kg/m3, the mass density (130000 kPa, x2 = 0.1989) was 916.3 ± 0.8 kg/m3 and the mass density (130000 kPa, x2 = 0.3011) was 910.7 ± 0.9 kg/m3. It also gave a mass density (130000 kPa, x2 = 0.4002) of 905.2 ± 0.9 kg/m3, a mass density (130000 kPa, x2 = 0.5001) of 899.6 ± 0.9 kg/m3 and a mass density (130000 kPa, x2 = 0.5997) of 893.2 ± 0.9 kg/m3. The mass density (130000 kPa, x2 = 0.6999) was 886.6 ± 0.9 kg/m3, the mass density (130000 kPa, x2 = 0.7999) was 879.5 ± 0.9 kg/m3 and the mass density (130000 kPa, x2 = 0.9) was 871.9 ± 1 kg/m3. The mass density (140000 kPa, x2 = 0) was 928.9 ± 0.8 kg/m3, the mass density (140000 kPa, x2 = 0.1) was 925.4 ± 0.8 kg/m3 and the mass density (140000 kPa, x2 = 0.1989) was 920.2 ± 0.8 kg/m3. It also gave a mass density (140000 kPa, x2 = 0.3011) of 914.4 ± 0.9 kg/m3, a mass density (140000 kPa, x2 = 0.4002) of 908.9 ± 0.9 kg/m3 and a mass density (140000 kPa, x2 = 0.5001) of 903.7 ± 0.9 kg/m3. It also gave a mass density (140000 kPa, x2 = 0.5997) of 897.3 ± 0.9 kg/m3, a mass density (140000 kPa, x2 = 0.6999) of 890.2 ± 0.9 kg/m3 and a mass density (140000 kPa, x2 = 0.7999) of 883.2 ± 1 kg/m3. For the same compound, the mass density (140000 kPa, x2 = 0.9) was 875.6 ± 1 kg/m3, the viscosity (x2 = 0) was 0.62 ± 0.014 mPa·s and the viscosity (x2 = 0.1001) was 0.62 ± 0.014 mPa·s. The viscosity (x2 = 0.2261) was 0.614 ± 0.013 mPa·s, the viscosity (x2 = 0.3) was 0.616 ± 0.013 mPa·s and the viscosity (x2 = 0.3966) was 0.646 ± 0.014 mPa·s. The viscosity (x2 = 0.5298) was 0.658 ± 0.014 mPa·s and the viscosity (x2 = 0.6001) was 0.71 ± 0.015 mPa·s.
